Columns and labels:
Assay in all cases: relative viability (nuclei count vs DMSO), 5 days (fraction); higher = more cells survive
ABC-1 = test system: ABC-1
Summary of the method: (§1)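 Lung cancer cell lines were seeded in 1536-well plates and dosed by pin tool the next day, with either a single drug or a fixed anchor-drug dose combined with five library-drug doses (not always all listed) spaced in √10 steps. Five days later, one step fixed the cells and stained their nuclei (final 0.05% Triton X-100, 1% formaldehyde, 1 ug/ml Hoechst), and nuclei were counted on 4× images. Relative viability is the nuclei count in treated wells divided by the count in vehicle wells, and each value is the median of duplicate plates.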

COR-L23 = test system: COR-L23
Summary of the method: as §1

EPLC-272H = test system: EPLC-272H
Summary of the method: as §1

HCC-15 = test system: HCC-15
Summary of the method: as §1

HCC-366 = test system: HCC-366
Summary of the method: as §1

HCC-44 = test system: HCC-44
Summary of the method: as §1

HCC-827 = test system: HCC-827
Summary of the method: as §1

LCLC-103H = test system: LCLC-103H
Summary of the method: as §1

NCI-H1355 = test system: NCI-H1355
Summary of the method: as §1

NCI-H1734 = test system: NCI-H1734
Summary of the method: as §1

NCI-H1793 = test system: NCI-H1793
Summary of the method: as §1

NCI-H1944 = test system: NCI-H1944
Summary of the method: as §1

NCI-H2009 = test system: NCI-H2009
Summary of the method: as §1

NCI-H2023 = test system: NCI-H2023
Summary of the method: as §1

NCI-H2085 = test system: NCI-H2085
Summary of the method: as §1

NCI-H2228 = test system: NCI-H2228
Summary of the method: as §1

NCI-H2347 = test system: NCI-H2347
Summary of the method: as §1

NCI-H2405 = test system: NCI-H2405
Summary of the method: as §1

NCI-H3122 = test system: NCI-H3122
Summary of the method: as §1

PC-14 = test system: PC-14
Summary of the method: as §1

SW 1573 = test system: SW 1573
Summary of the method: as §1

Compound: CCNC(=O)c1noc(-c2cc(C(C)C)c(O)cc2O)c1-c1ccc(CN2CCOCC2)cc1 [Luminespib] + C[C@]1(O)C[C@@H](c2nc(-c3ccc4ccc(-c5ccccc5)nc4c3)c3c(N)nccn32)C1 [Linsitinib] (partner 1 µM)
- relative viability (ABC-1; first compound 0.002 µM): 0.869
- relative viability (ABC-1; first compound 0.006325 µM): 0.941
- relative viability (ABC-1; first compound 0.02 µM): 0.676
- relative viability (ABC-1; first compound 0.06325 µM): 0.257
- relative viability (ABC-1; first compound 0.2 µM): 0.227
- relative viability (COR-L23; first compound 0.002 µM): 0.946
- relative viability (COR-L23; first compound 0.006325 µM): 0.811
- relative viability (COR-L23; first compound 0.02 µM): 1.03
- relative viability (COR-L23; first compound 0.06325 µM): 0.0654
- relative viability (COR-L23; first compound 0.2 µM): 0.0696
- relative viability (EPLC-272H; first compound 0.006325 µM): 1.07
- relative viability (EPLC-272H; first compound 0.02 µM): 0.727
- relative viability (EPLC-272H; first compound 0.06325 µM): 1.11
- relative viability (EPLC-272H; first compound 0.2 µM): 1.14
- relative viability (HCC-15; first compound 0.002 µM): 0.837
- relative viability (HCC-15; first compound 0.006325 µM): 0.873
- relative viability (HCC-15; first compound 0.02 µM): 0.929
- relative viability (HCC-15; first compound 0.06325 µM): 0.57
- relative viability (HCC-15; first compound 0.2 µM): 0.519
- relative viability (HCC-366; first compound 0.002 µM): 0.56
- relative viability (HCC-366; first compound 0.006325 µM): 0.696
- relative viability (HCC-366; first compound 0.02 µM): 0.462
- relative viability (HCC-366; first compound 0.06325 µM): 0.0199
- relative viability (HCC-366; first compound 0.2 µM): 0.0167
- relative viability (HCC-44; first compound 0.002 µM): 0.68
- relative viability (HCC-44; first compound 0.006325 µM): 0.714
- relative viability (HCC-44; first compound 0.02 µM): 0.684
- relative viability (HCC-44; first compound 0.06325 µM): 0.251
- relative viability (HCC-44; first compound 0.2 µM): 0.158
- relative viability (HCC-827; first compound 0.002 µM): 0.922
- relative viability (HCC-827; first compound 0.006325 µM): 0.925
- relative viability (HCC-827; first compound 0.02 µM): 0.937
- relative viability (HCC-827; first compound 0.06325 µM): 0.974
- relative viability (HCC-827; first compound 0.2 µM): 1.02
- relative viability (LCLC-103H; first compound 0.002 µM): 1.14
- relative viability (LCLC-103H; first compound 0.006325 µM): 0.971
- relative viability (LCLC-103H; first compound 0.02 µM): 1.1
- relative viability (LCLC-103H; first compound 0.06325 µM): 1.03
- relative viability (LCLC-103H; first compound 0.2 µM): 1.04
- relative viability (NCI-H1355; first compound 0.002 µM): 0.903
- relative viability (NCI-H1355; first compound 0.006325 µM): 0.785
- relative viability (NCI-H1355; first compound 0.02 µM): 0.425
- relative viability (NCI-H1355; first compound 0.06325 µM): 0.763
- relative viability (NCI-H1355; first compound 0.2 µM): 0.81
- relative viability (NCI-H1734; first compound 0.002 µM): 0.917
- relative viability (NCI-H1734; first compound 0.006325 µM): 0.792
- relative viability (NCI-H1734; first compound 0.02 µM): 0.7
- relative viability (NCI-H1734; first compound 0.06325 µM): 0.258
- relative viability (NCI-H1734; first compound 0.2 µM): 0.167
- relative viability (NCI-H1793; first compound 0.002 µM): 0.831
- relative viability (NCI-H1793; first compound 0.006325 µM): 0.798
- relative viability (NCI-H1793; first compound 0.02 µM): 0.326
- relative viability (NCI-H1793; first compound 0.06325 µM): 0.16
- relative viability (NCI-H1793; first compound 0.2 µM): 0.147
- relative viability (NCI-H1944; first compound 0.002 µM): 1.21
- relative viability (NCI-H1944; first compound 0.006325 µM): 1.1
- relative viability (NCI-H1944; first compound 0.02 µM): 0.791
- relative viability (NCI-H1944; first compound 0.06325 µM): 1.07
- relative viability (NCI-H1944; first compound 0.2 µM): 1.09
- relative viability (NCI-H2009; first compound 0.002 µM): 1.21
- relative viability (NCI-H2009; first compound 0.006325 µM): 1.2
- relative viability (NCI-H2009; first compound 0.02 µM): 1.21
- relative viability (NCI-H2009; first compound 0.06325 µM): 1.13
- relative viability (NCI-H2009; first compound 0.2 µM): 0.0697
- relative viability (NCI-H2023; first compound 0.002 µM): 0.652
- relative viability (NCI-H2023; first compound 0.006325 µM): 0.575
- relative viability (NCI-H2023; first compound 0.02 µM): 0.732
- relative viability (NCI-H2023; first compound 0.06325 µM): 0.0892
- relative viability (NCI-H2023; first compound 0.2 µM): 0.0832
- relative viability (NCI-H2085; first compound 0.002 µM): 0.405
- relative viability (NCI-H2085; first compound 0.006325 µM): 0.76
- relative viability (NCI-H2085; first compound 0.02 µM): 0.826
- relative viability (NCI-H2085; first compound 0.06325 µM): 0.442
- relative viability (NCI-H2085; first compound 0.2 µM): 0.241
- relative viability (NCI-H2228; first compound 0.002 µM): 0.612
- relative viability (NCI-H2228; first compound 0.006325 µM): 0.629
- relative viability (NCI-H2228; first compound 0.02 µM): 0.203
- relative viability (NCI-H2228; first compound 0.06325 µM): 0.168
- relative viability (NCI-H2228; first compound 0.2 µM): 0.199
- relative viability (NCI-H2347; first compound 0.002 µM): 1.03
- relative viability (NCI-H2347; first compound 0.02 µM): 0.824
- relative viability (NCI-H2347; first compound 0.06325 µM): 0.924
- relative viability (NCI-H2347; first compound 0.2 µM): 0.404
- relative viability (NCI-H2405; first compound 0.002 µM): 1.01
- relative viability (NCI-H2405; first compound 0.006325 µM): 0.721
- relative viability (NCI-H2405; first compound 0.02 µM): 0.613
- relative viability (NCI-H2405; first compound 0.06325 µM): 0.254
- relative viability (NCI-H2405; first compound 0.2 µM): 0.182
- relative viability (NCI-H3122; first compound 0.002 µM): 0.936
- relative viability (NCI-H3122; first compound 0.006325 µM): 0.973
- relative viability (NCI-H3122; first compound 0.02 µM): 0.945
- relative viability (NCI-H3122; first compound 0.06325 µM): 0.172
- relative viability (NCI-H3122; first compound 0.2 µM): 0.146
- relative viability (PC-14; first compound 0.002 µM): 0.896
- relative viability (PC-14; first compound 0.006325 µM): 0.897
- relative viability (PC-14; first compound 0.02 µM): 1.09
- relative viability (PC-14; first compound 0.06325 µM): 0.936
- relative viability (PC-14; first compound 0.2 µM): 0.146
- relative viability (SW 1573; first compound 0.002 µM): 0.88
- relative viability (SW 1573; first compound 0.006325 µM): 0.594
- relative viability (SW 1573; first compound 0.02 µM): 0.707
- relative viability (SW 1573; first compound 0.06325 µM): 0.423
- relative viability (SW 1573; first compound 0.2 µM): 0.123
